Target: Tie-2 (Homo sapiens, UniProt Q02763)
Test: Tie-2 tyrosine kinase activity: kinase-dependent ATP consumption (pEY substrate, luciferase/luciferin chemiluminescence) or 33P-ATP incorporation into substrate
Format: biochemical
Conditions: Tie-2 (human enzyme) inhibition, Table 2, class symbols A-D
Method in brief: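 Tie-2 kinase activity is read either as ATP consumption with pEY substrate by luciferase/luciferin chemiluminescence, or as 33P incorporation from 33P-ATP into plate-adsorbed substrate by scintillation counting. IC50 values are binned as A <50 nM, B >50–1000 nM, C >1000–<10,000 nM, and D ≥10,000 nM.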

Chain of Tie-2 (Q02763 23-1124): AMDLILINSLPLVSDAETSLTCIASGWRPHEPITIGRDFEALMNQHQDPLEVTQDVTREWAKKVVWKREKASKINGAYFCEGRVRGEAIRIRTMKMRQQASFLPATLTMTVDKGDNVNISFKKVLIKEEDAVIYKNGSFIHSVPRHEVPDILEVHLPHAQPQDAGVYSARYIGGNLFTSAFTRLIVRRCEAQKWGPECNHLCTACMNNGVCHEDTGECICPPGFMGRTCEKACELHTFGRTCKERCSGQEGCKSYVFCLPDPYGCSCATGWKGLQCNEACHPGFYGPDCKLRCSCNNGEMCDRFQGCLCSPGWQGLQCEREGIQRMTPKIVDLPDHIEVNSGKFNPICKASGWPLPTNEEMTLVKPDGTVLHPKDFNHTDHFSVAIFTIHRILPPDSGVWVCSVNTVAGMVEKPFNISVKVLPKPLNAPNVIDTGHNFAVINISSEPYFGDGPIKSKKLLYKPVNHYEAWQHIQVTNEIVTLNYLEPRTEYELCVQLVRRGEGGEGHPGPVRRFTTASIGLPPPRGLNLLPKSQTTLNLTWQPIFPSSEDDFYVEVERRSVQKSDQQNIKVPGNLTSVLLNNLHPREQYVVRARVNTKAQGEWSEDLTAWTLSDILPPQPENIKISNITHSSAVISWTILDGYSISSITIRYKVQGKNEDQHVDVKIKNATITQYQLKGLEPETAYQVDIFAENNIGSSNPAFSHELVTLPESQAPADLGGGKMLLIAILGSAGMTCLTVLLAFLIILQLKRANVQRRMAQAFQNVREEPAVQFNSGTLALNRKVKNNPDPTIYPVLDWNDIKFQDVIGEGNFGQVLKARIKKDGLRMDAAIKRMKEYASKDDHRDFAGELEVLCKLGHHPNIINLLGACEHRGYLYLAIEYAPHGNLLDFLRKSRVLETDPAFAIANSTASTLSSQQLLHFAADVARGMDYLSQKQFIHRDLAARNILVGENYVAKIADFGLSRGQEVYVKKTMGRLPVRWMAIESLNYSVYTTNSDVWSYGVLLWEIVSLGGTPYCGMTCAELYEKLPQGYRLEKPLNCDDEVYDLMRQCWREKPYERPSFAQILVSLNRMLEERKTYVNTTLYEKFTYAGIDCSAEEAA

IC50: 1 to 10 µM
Structure (SMILES): CCOc1cc(-c2nc(C)n(CCN(C(=O)Cc3cccc4ccccc34)C3CCCC3)n2)cc(N)n1 [Entry 187, N-(2-{3-[2-amino-6-(ethyloxy)pyridin-4-yl]-5-methyl-1H-1,2,4-triazol-1-yl}ethyl)-N-cyclopentyl-2-naphthalen-1-ylacetamide]
